For the experiment, the system named is Abeta 40. Put plainly: In vivo inhibition of beta-secretase: Abeta 40 reduction in CSF and brain of the rat. Conditions: 10 mpk (unless otherwise noted), after 4 hrs. The text has this:
In Vivo Inhibition of Beta-Secretase
Several animal models, including mouse, rat, dog, and monkey, may be used to screen for inhibition of beta-secretase activity in vivo following administration of a test compound sample. Animals used in this invention can be wild type, transgenic, or gene knockout animals. […] One to twenty-four hours following the administration of compound, animals are sacrificed, and brains as well as cerebrospinal fluid (CSF) and plasma are removed for analysis of A-beta levels and drug or test compound concentrations (Dovey et al., 2001, Journal of Neurochemistry, 76, 173-181) Beginning at time 0, animals are administered by oral gavage, or other means of delivery such as intravenous injection, an inhibitory test compound of up to 100 mg/kg in a standard, conventional formulation, such as 2% hydroxypropyl methylcellulose, 1% Tween80. A separate group of animals receive 2% hydroxypropyl methylcellulose, 1% Tween80 alone, containing no test compound, and serve as a vehicle-control group. At the end of the test period, animals are sacrificed and brain tissues, plasma or cerebrospinal fluid are collected. Brains are either homogenized in 10 volumes (w/v) of 0.2% diethylamine (DEA) in 50 mM NaCl (Best et al., 2005, Journal of Pharmacology and Experimental Therapeutics, 313, 902-908), or in 10 volumes of 0.5% TritonX-100 in Tris-buffered saline (pH at about 7.6). Homogenates are centrifuged at 355,000 g, 4° C. for 30 minutes. CSF or brain supernatants are then analyzed for the presence of A-beta peptide by specific sandwich ELISA assays based on ECL (Electrochemiluminescence) technology. For example, rat Abeta40 is measured using biotinylated-4G8 (Signet) as a capture antibody and Fab40 (an in-house antibody specific to the C-terminal of Abeta40) as a detection antibody.
Actual vehicles used: Oral: 2% HPMC, 1% Tween80, pH 2.2

As for `CC1(C)C(N)=N[C@](CF)(c2cc(Nc3ncnc4cc(C#N)cnc34)ccc2F)CS1(=O)=O` [Example 236, 4-((3-((3S)-5-amino-3-(fluoromethyl)-6,6-dimethyl-1,1-dioxido-3,6-dihydro-2H-1,4-thiazin-3-yl)-4-fluorophenyl)amino)pyrido[3,2-d]pyrimidine-7-carbonitrile], the “% reduction of rat CSF levels at 10 pmk” value was determined as 35% and the “% reduction of rat brain levels at 10 mpk” value (“% reduction … at 10 mpk” for short) worked out at 1%.

Take `CC1(C)C(N)=N[C@](C)(c2cc(Nc3ncc(F)c4cc(C#N)cnc34)ccc2F)CS1(=O)=O` [Example 76, (R)-8-((3-(5-Amino-3,6,6-trimethyl-1,1-dioxido-3,6-dihydro-2H-1,4-thiazin-3-yl)-4-fluorophenyl)amino)-5-fluoro-1,7-naphthyridine-3-carbonitrile]: the “% reduction of rat CSF levels at 10 pmk” value was 60% and the “% reduction … at 10 mpk” value amounted to 46%.

Take `COc1cnc2c(Nc3ccc(F)c([C@]4(C)CS(=O)(=O)C(C)(C)C(N)=N4)c3)nccc2n1` [Example 47, N-(3-((3R)-5-amino-3,6,6-trimethyl-1,1-dioxido-3,6-dihydro-2H-1,4-thiazin-3-yl)-4-fluorophenyl)-2-methoxypyrido[3,4-b]pyrazin-5-amine]: the “% reduction of rat CSF levels at 10 pmk” value is on record as 82% and the “% reduction … at 10 mpk” value is recorded as 66%.

Turning to `Cc1cc(Cl)cnc1C(=O)Nc1ccc(F)c([C@]2(C)CS(=O)(=O)[C@@](C)(F)C(N)=N2)c1` [Example 388, N-(3-((3R,6R)-5-amino-6-fluoro-3,6-dimethyl-1,1-dioxido-3,6-dihydro-2H-1,4-thiazin-3-yl)-4-fluorophenyl)-5-chloro-3-methyl-2-pyridinecarboxamide], the “% reduction of rat CSF levels at 10 pmk” value amounted to 33% and the “% reduction … at 10 mpk” value was determined as 7%.

Regarding `CC1(C)C(N)=N[C@](CF)(c2cc(Nc3ncnc4cc(Cl)cnc34)ccc2F)CS1(=O)=O` [Example 235, N-(3-((3S)-5-amino-3-(fluoromethyl)-6,6-dimethyl-1,1-dioxido-3,6-dihydro-2H-1,4-thiazin-3-yl)-4-fluorophenyl)-7-chloropyrido[3,2-d]pyrimidin-4-amine], the “% reduction of rat CSF levels at 10 pmk” value came out at 38% and the “% reduction … at 10 mpk” value stood at 14%.

`COc1cnc2c(Nc3ccc(F)c([C@]4(CF)CS(=O)(=O)C(C)(C)C(N)=N4)c3)ncc(F)c2c1` [Example 159, (S)-5-amino-3-(2-fluoro-5-((5-fluoro-3-methoxy-1,7-naphthyridin-8-yl)amino)phenyl)-3-(fluoromethyl)-6,6-dimethyl-3,6-dihydro-2H-1,4-thiazine 1,1-dioxide]: the “% reduction of rat CSF levels at 10 pmk” value was determined as 45% and the “% reduction … at 10 mpk” value turned out to be 31%.

As for `COc1cnc2c(Nc3ccc(F)c([C@]4(C)CS(=O)(=O)[C@@](C)(F)C(N)=N4)c3)ncnc2c1` [Example 177, (3R,6R)-5-Amino-6-fluoro-3-(2-fluoro-5-((7-methoxypyrido[3,2-d]pyrimidin-4-yl)amino)phenyl)-3,6-dimethyl-3,6-dihydro-2H-1,4-thiazine 1,1-dioxide], the “% reduction of rat CSF levels at 10 pmk” value amounted to 37% and the “% reduction … at 10 mpk” value is 24%.

With `CC1(C)C(N)=N[C@](C)(c2cc(NC(=O)c3ccc(F)cn3)ccc2F)CS1(=O)=O` [Example 18, N-(3-((3R)-5-amino-3,6,6-trimethyl-1,1-dioxido-3,6-dihydro-2H-1,4-thiazin-3-yl)-4-fluorophenyl)-5-fluoro-2-pyridinecarboxamide], the “% reduction of rat CSF levels at 10 pmk” value was 73% and the “% reduction … at 10 mpk” value is listed as 57%.

As for `CC1(C)C(N)=N[C@](CF)(c2cc(Nc3ncc(F)c4cc(Cl)cnc34)ccc2F)CS1(=O)=O` [Example 233, N-(3-((3S)-5-amino-3-(fluoromethyl)-6,6-dimethyl-1,1-dioxido-3,6-dihydro-2H-1,4-thiazin-3-yl)-4-fluorophenyl)-3-chloro-5-fluoro-1,7-naphthyridin-8-amine], the “% reduction of rat CSF levels at 10 pmk” value is 25% and the “% reduction … at 10 mpk” value came to 0%.

As for `Cc1cc(OC(F)F)cnc1C(=O)Nc1ccc(F)c([C@]2(C)CS(=O)(=O)C(C)(C)C(N)=N2)c1` [Example 144, (R)—N-(3-(5-amino-3,6,6-trimethyl-1,1-dioxido-3,6-dihydro-2H-1,4-thiazin-3-yl)-4-fluorophenyl)-5-(difluoromethoxy)-3-methylpicolinamide], the “% reduction of rat CSF levels at 10 pmk” value was 79% and the “% reduction … at 10 mpk” value is reported as 72%.

For the molecule `COc1cnc2c(Nc3ccc(F)c([C@]4(C)CS(=O)(=O)C(C)(C)C(N)=N4)c3)nccc2c1` [Example 46, N-(3-((3R)-5-amino-3,6,6-trimethyl-1,1-dioxido-3,6-dihydro-2H-1,4-thiazin-3-yl)-4-fluorophenyl)-3-methoxy-1,7-naphthyridin-8-amine], the “% reduction of rat CSF levels at 10 pmk” value came to 76% and the “% reduction … at 10 mpk” value is given as 64%.

Regarding `Cc1cc(OC(F)F)cnc1C(=O)Nc1ccc(F)c([C@@]2(C)N=C(N)C(C)(C)S(=O)(=O)C2F)c1` (stereo partly drawn) [Example 330, N-(3-((3R)-5-amino-2-fluoro-3,6,6-trimethyl-1,1-dioxido-3,6-dihydro-2H-1,4-thiazin-3-yl)-4-fluorophenyl)-5-(difluoromethoxy)-3-methyl-2-pyridinecarboxamide], the “% reduction of rat CSF levels at 10 pmk” value was 78% and the “% reduction … at 10 mpk” value amounted to 72%.

For the molecule `CC1(C)C(N)=N[C@](C)(c2cc(NC(=O)c3ncc(Cl)cc3F)ccc2F)C(F)S1(=O)=O` (stereo partly drawn) [Example 329, N-(3-((3R)-5-amino-2-fluoro-3,6,6-trimethyl-1,1-dioxido-3,6-dihydro-2H-1,4-thiazin-3-yl)-4-fluorophenyl)-5-chloro-3-fluoro-2-pyridinecarboxamide], the “% reduction of rat CSF levels at 10 pmk” value was 27% and the “% reduction … at 10 mpk” value was 20%.

With `COc1ccc(C(=O)Nc2cnc(F)c([C@]3(C)CS(=O)(=O)C(C)(C)C(N)=N3)c2)nc1` [Example 401, N-(5-((3R)-5-amino-3,6,6-trimethyl-1,1-dioxido-3,6-dihydro-2H-1,4-thiazin-3-yl)-6-fluoro-3-pyridinyl)-5-methoxy-2-pyridinecarboxamide], the “% reduction of rat CSF levels at 10 pmk” value amounted to 69% and the “% reduction … at 10 mpk” value was found to be 48%.

In the case of `Cc1cc(Cl)cnc1C(=O)Nc1ccc(F)c([C@@]2(C)N=C(N)C(C)(C)S(=O)(=O)C2F)c1` (stereo partly drawn) [Example 331, N-(3-((3R)-5-amino-2-fluoro-3,6,6-trimethyl-1,1-dioxido-3,6-dihydro-2H-1,4-thiazin-3-yl)-4-fluorophenyl)-5-chloro-3-methyl-2-pyridinecarboxamide], the “% reduction of rat CSF levels at 10 pmk” value was found to be 67% and the “% reduction … at 10 mpk” value came out at 59%.

For `Cc1cc(C#N)cnc1C(=O)Nc1ccc(F)c([C@]2(C)CS(=O)(=O)[C@@](C)(F)C(N)=N2)c1` [Example 324, N-(3-((3R,6R)-5-amino-6-fluoro-3,6-dimethyl-1,1-dioxido-3,6-dihydro-2H-1,4-thiazin-3-yl)-4-fluorophenyl)-5-cyano-3-methyl-2-pyridinecarboxamide], the “% reduction of rat CSF levels at 10 pmk” value is 44% and the “% reduction … at 10 mpk” value turned out to be 29%.

With `Cc1cc(Cl)cnc1C(=O)Nc1cnc(F)c([C@]2(C)CS(=O)(=O)C3(CCC3)C(N)=N2)c1` [Example 359, N-(5-((7R)-9-amino-7-methyl-5,5-dioxido-5-thia-8-azaspiro[3.5]non-8-en-7-yl)-6-fluoro-3-pyridinyl)-5-chloro-3-methyl-2-pyridinecarboxamide], the “% reduction of rat CSF levels at 10 pmk” value amounted to 55% and the “% reduction … at 10 mpk” value was 24%.

As to `COc1cnc2c(Nc3cnc(F)c([C@]4(C)CS(=O)(=O)C(C)(C)C(N)=N4)c3)nccc2n1` [Example 222, N-(5-((3R)-5-amino-3,6,6-trimethyl-1,1-dioxido-3,6-dihydro-2H-1,4-thiazin-3-yl)-6-fluoro-3-pyridinyl)-2-methoxypyrido[3,4-b]pyrazin-5-amine], the “% reduction of rat CSF levels at 10 pmk” value stood at 65% and the “% reduction … at 10 mpk” value is 49%.

For the molecule `Cc1cc(Cl)cnc1C(=O)Nc1ccc(F)c([C@]2(CF)CS(=O)(=O)C(C)(C)C(N)=N2)c1` [Example 408, N-(3-((3S)-5-amino-3-(fluoromethyl)-6,6-dimethyl-1,1-dioxido-3,6-dihydro-2H-1,4-thiazin-3-yl)-4-fluorophenyl)-5-chloro-3-methyl-2-pyridinecarboxamide], the “% reduction of rat CSF levels at 10 pmk” value stood at 62% and the “% reduction … at 10 mpk” value came to 37%.

As to `CC1(C)C(N)=N[C@](C)(c2cc(NC(=O)c3ccc(Cl)cn3)ccc2F)CS1(=O)=O` [Example 19, N-(3-((3R)-5-amino-3,6,6-trimethyl-1,1-dioxido-3,6-dihydro-2H-1,4-thiazin-3-yl)-4-fluorophenyl)-5-chloro-2-pyridinecarboxamide], the “% reduction of rat CSF levels at 10 pmk” value is recorded as 83% and the “% reduction … at 10 mpk” value is listed as 74%.

For the origin of these results see patent US9556135B2, “Amino-dihydrothiazine and amino-dioxido dihydrothiazine compounds as beta-secretase antagonists and methods of use” (Amgen Inc., priority 2012, dated 2017).
